Source: patent publication US20240390369A1, “METHODS FOR DETERMINING RESPONSIVENESS TO TYK2 INHIBITORS” (Bristol-Myers Squibb Company, priority 2021, published 2024)

Legend:
β-defensin 2 (BD2) = experiment: Serum β-defensin 2 level over sixteen weeks of treatment (ELISA); type: in vivo, human; settings: 12 mg QD treatment arm; sixteen-week treatment period (FIG. 43B)
Method: Levels of proteins in serum were measured at baseline and at various points during sixteen weeks of treatment with deucravacitinib. […] Levels of BD2 in serum samples were measured by ELISA; levels of IL-19 and IL-17A in serum were each measured by ultrasensitive Simoa technology.

[1] = system: patients with psoriatic arthritis; experiment: Phase 2 trial in psoriatic arthritis: ACR20 response at week 16; type: in vivo, human

SMILES: [2H]C([2H])([2H])NC(=O)c1nnc(NC(=O)C2CC2)cc1Nc1cccc(-c2ncn(C)n2)c1OC [deucravacitinib, 6-(cyclopropanecarboxamido)-4-((2-methoxy-3-(1-methyl-1H-1,2,4-triazol-3-yl)phenyl)amino)-N-(methyl-d3)pyridazine-3-carboxamide]
- Change from baseline in serum BD2 level, PASI75 responders versus non-responders (β-defensin 2 (BD2)): greater reductions in BD2 serum level were observed over time in the PASI75 responder group compared with the non-responder group
- Interaction Term for ACR20 response (ratio of odds ratios) ([1]; adjusted for baseline DAS28, 12 mg QD vs placebo: IL-19-high versus IL-19-low): 7.37
- Odds Ratio for ACR20 response ([1]; adjusted for baseline DAS28, All patients, 6 mg QD vs placebo): 2.44
- Odds Ratio for ACR20 response ([1]; adjusted for baseline DAS28, BD2-high, 12 mg QD vs placebo): 7.33
- Odds Ratio for ACR20 response ([1]; adjusted for baseline DAS28, IL-17A-low, 12 mg QD vs placebo): 2.16
